What all share (type): cell-based
For test [1], the target named is T1, SST2 (Homo sapiens, UniProt P30874).
T1 construct: host or cells: PathHunter CHO-K1 SST2 cells
Put plainly: PathHunter CHO-K1 SST2 Internalization Assay. To be noted: PathHunter CHO-K1 SST2 cells; 90 min at 37 C; luminescence; read-out: Internalization EC50. The procedure, abridged:
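CHO-K1 cells expressing human SST2, 2500 cells/well, grown 48 h, then exposed 90 min at 37 C to 11-point 1:3 NDC dilutions (final top 10 uM). Beta-Glo luminescence after 60 min at room temperature; four-parameter IC50, duplicate mean, background-corrected.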

The subject of test [2] is NCI-H524 human small cell lung cancer cells. Kind of test: H524 assay: inhibition of cell proliferation (CellTiter Glo). The settings on record: 2 h treatment, washout, additional 70 h incubation. The procedure, abridged: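 NCI-H524 cells were exposed for 2 h to NDC in an 11-point two-fold series starting at 1 uM. The drug was then washed out and cells grew a further 70 h. CellTiter Glo luminescence gave % inhibition versus untreated control, and IC50 came from a four-parameter nonlinear regression.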
(In general: ATP-based viability assays read luminescence as a measure of living cells.)

Test [3] addresses T2, human somatostatin receptor subtype 2 (Homo sapiens, UniProt P30874).
T2 construct: expressed in transfected cells
Put plainly: Functional assay for SSTR2 agonists (HTRF cAMP). The settings on record: CHO-K1 cells stably expressing human SST2; NKH477-stimulated cAMP; 20 min at 37 C; read-out: hSST2 cAMP Avg EC50. The procedure, abridged: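 CHO-K1 cells stably expressing human SSTR2 treated with compound (typically 0-10,000 nM final) for 20 min at 37 °C. Lysate cAMP measured by HTRF (665/620 nm ratio), converted via standard curve; EC50 from cAMP vs concentration.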
A general note: In TR-FRET formats the signal depends on donor and acceptor labels being close together.

T2 sequence (P30874 whole entry): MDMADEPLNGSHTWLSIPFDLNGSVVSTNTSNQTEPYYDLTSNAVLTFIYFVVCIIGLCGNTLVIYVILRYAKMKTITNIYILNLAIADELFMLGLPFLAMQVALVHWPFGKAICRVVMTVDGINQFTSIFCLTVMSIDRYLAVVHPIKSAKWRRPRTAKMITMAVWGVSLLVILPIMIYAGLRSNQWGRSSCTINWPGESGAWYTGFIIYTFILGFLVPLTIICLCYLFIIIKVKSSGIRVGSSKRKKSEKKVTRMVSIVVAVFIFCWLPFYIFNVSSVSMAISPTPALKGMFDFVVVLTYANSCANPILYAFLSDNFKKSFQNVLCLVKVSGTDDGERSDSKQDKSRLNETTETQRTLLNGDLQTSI
T1 sequence (P30874 whole entry): as above

Broadly, the EC50 is the midpoint of the concentration-response curve. Turning to `CC[C@H](C)[C@@H]([C@@H](CC(=O)N1CCC[C@H]1[C@H](OC)[C@@H](C)C(=O)N[C@H](C)[C@@H](O)c1ccccc1)OC)N(C)C(=O)[C@@H](NC(=O)[C@H](C(C)C)N(C)C(=O)OCc1ccc(NC(=O)[C@H](C)NC(=O)[C@@H](NC(=O)CCOCCC(=O)NCCNc2ncc(-c3cc(C)cc(F)c3)c(N3CCC(N)CC3)c2-c2nc3ccc(F)cc3[nH]2)C(C)C)c(O[C@@H]2O[C@H](C(=O)O)[C@@H](O)[C@H](O)[C@H]2O)c1)C(C)C` [Compound 138], the EC50 in test [1] was 4.4 nM; in test [2], 20 nM; in test [3] it was 0.072 nM.

Take `CC[C@H](C)[C@@H]([C@@H](CC(=O)N1CCC[C@H]1[C@H](OC)[C@@H](C)C(=O)N[C@H](C)[C@@H](O)c1ccccc1)OC)N(C)C(=O)[C@@H](NC(=O)[C@H](C(C)C)N(C)C(=O)OCc1ccc(NC(=O)[C@H](CCCNC(N)=O)NC(=O)[C@@H](NC(=O)CCOCCC(=O)N(C)CC(=O)NCCNc2ncc(-c3cc(C)cc(F)c3)c(N3CCC(N)CC3)c2-c2nc3ccc(Cl)cc3[nH]2)C(C)C)c(OCC(N)=O)c1)C(C)C` [Compound 21]: the EC50 in test [1] is 7.6 nM; in test [2], 13 nM; in test [3], 0.096 nM.

Consider `CC[C@H](C)[C@@H]([C@@H](CC(=O)N1CCC[C@H]1[C@H](OC)[C@@H](C)C(=O)N[C@H](C)[C@@H](O)c1ccccc1)OC)N(C)C(=O)[C@@H](NC(=O)[C@H](C(C)C)N(C)C(=O)OCc1ccc(NC(=O)[C@H](C)NC(=O)[C@@H](NC(=O)CCOCCOCCOCCOCCC(=O)NCCNc2ncc(-c3cc(C)cc(F)c3)c(N3CCC(N)CC3)c2-c2nc3ccc(Cl)cc3[nH]2)C(C)C)c(OCC(=O)O)c1)C(C)C` [Compound 14], for which the results for the EC50 in test [1], in test [2] and in test [3] were 4.6 nM, 19 nM and 0.037 nM, respectively.

For the molecule `CC[C@H](C)[C@@H]([C@@H](CC(=O)N1CCC[C@H]1[C@H](OC)[C@@H](C)C(=O)N[C@H](C)[C@@H](O)c1ccccc1)OC)N(C)C(=O)[C@@H](NC(=O)[C@H](C(C)C)N(C)C(=O)OCc1ccc(NC(=O)[C@H](CCCNC(N)=O)NC(=O)[C@@H](NC(=O)c2cn(CCOCCC(=O)NCCNc3ncc(-c4cc(C)cc(F)c4)c(N4CCC(N)CC4)c3-c3nc4cc(Cl)ccc4[nH]3)nn2)C(C)C)c(O[C@@H]2O[C@H](C(=O)N3CCNCC3)[C@@H](O)[C@H](O)[C@H]2O)c1)C(C)C` [Compound 237], the EC50 in test [1] was 8.4 nM; in test [2], 8.2 nM; in test [3] it was 0.15 nM.

With `CC[C@H](C)[C@@H]([C@@H](CC(=O)N1CCC[C@H]1[C@H](OC)[C@@H](C)C(=O)N[C@H](C)[C@@H](O)c1ccccc1)OC)N(C)C(=O)[C@@H](NC(=O)[C@H](C(C)C)N(C)C(=O)OCc1ccc(NC(=O)[C@H](CCCNC(N)=O)NC(=O)[C@@H](NC(=O)[C@H](CCC(=O)O)NC(=O)CCOCCC(=O)NCCNc2ncc(-c3cc(C)cc(F)c3)c(N3CCC(N)CC3)c2-c2nc3ccc(Cl)cc3[nH]2)C(C)C)cc1C(=O)NOCCN)C(C)C` [Compound 90], the EC50 in test [1] worked out at 5.5 nM; in test [2], 480 nM; in test [3], 0.66 nM.

For the molecule `CC[C@H](C)[C@@H]([C@@H](CC(=O)N1CCC[C@H]1[C@H](OC)[C@@H](C)C(=O)N[C@H](C)[C@@H](O)c1ccccc1)OC)N(C)C(=O)[C@@H](NC(=O)[C@H](C(C)C)N(C)C(=O)OCc1ccc(NC(=O)[C@H](C)NC(=O)[C@@H](NC(=O)C[C@@H](N)C(=O)NCCOCCC(=O)NCCNc2ncc(-c3cc(C)cc(F)c3)c(N3CCC(NC)CC3)c2-c2nc3ccc(Cl)cc3[nH]2)C(C)C)c(O[C@@H]2O[C@H](C(=O)O)[C@@H](O)[C@H](O)[C@H]2O)c1)C(C)C` [Compound 120], the EC50 in test [1] came to 5.2 nM; in test [2], 20 nM; in test [3], 0.088 nM.

For `CC[C@H](C)[C@@H]([C@@H](CC(=O)N1CCC[C@H]1[C@H](OC)[C@@H](C)C(=O)N[C@H](C)[C@@H](O)c1ccccc1)OC)N(C)C(=O)[C@@H](NC(=O)[C@H](C(C)C)N(C)C(=O)OCc1ccc(NC(=O)[C@H](C)NC(=O)[C@@H](NC(=O)CCOCCC(=O)N(C)CC(=O)NCCNc2ncc(-c3cc(C)cc(F)c3)c(N3CCC(N)CC3)c2-c2nc3ccc(Cl)cc3[nH]2)C(C)C)c(O[C@@H]2O[C@H](C(=O)NCS(=O)(=O)O)[C@@H](O)[C@H](O)[C@H]2O)c1)C(C)C` [Compound 50], the EC50 in test [1] was 6.8 nM; in test [2], 36 nM; in test [3], 0.13 nM.

As for `CC[C@H](C)[C@@H]([C@@H](CC(=O)N1CCC[C@H]1[C@H](OC)[C@@H](C)C(=O)N[C@H](C)[C@@H](O)c1ccccc1)OC)N(C)C(=O)[C@@H](NC(=O)[C@H](C(C)C)N(C)C(=O)OCc1ccc(NC(=O)[C@H](C)NC(=O)[C@@H](NC(=O)CCOCCC(=O)N(C)CC(=O)NCCNc2ncc(-c3cc(C)cc(F)c3)c(N3CCC(N)CC3)c2-c2nc3ccc(Cl)cc3[nH]2)C(C)C)c(O[C@@H]2O[C@H](C(=O)NCCS(=O)(=O)O)[C@@H](O)[C@H](O)[C@H]2O)c1)C(C)C` [Compound 51], the EC50 in test [1] was determined as 4.4 nM; in test [2] it was 28 nM; in test [3], 0.092 nM.

In the case of `CC[C@H](C)[C@@H]([C@@H](CC(=O)N1CCC[C@H]1[C@H](OC)[C@@H](C)C(=O)N[C@H](C)[C@@H](O)c1ccccc1)OC)N(C)C(=O)[C@@H](NC(=O)[C@H](C(C)C)N(C)C(=O)OCc1ccc(NC(=O)[C@H](CCCNC(N)=O)NC(=O)[C@@H](NC(=O)CCOCCOCCOCCOCCC(=O)NCCNc2ncc(-c3cc(C)cc(F)c3)c(N3CCC(N)CC3)c2-c2nc3ccc(Cl)cc3[nH]2)C(C)C)cc1C(=O)O)C(C)C` [Compound 4], the values for the EC50 in test [1], in test [2] and in test [3] were 3.8 nM, 740 nM and 0.11 nM, respectively.

Take `CC[C@H](C)[C@@H]([C@@H](CC(=O)N1CCC[C@H]1[C@H](OC)[C@@H](C)C(=O)N[C@H](C)[C@@H](O)c1ccccc1)OC)N(C)C(=O)[C@@H](NC(=O)[C@H](C(C)C)N(C)C(=O)OCc1ccc(NC(=O)[C@H](CCCNC(N)=O)NC(=O)[C@@H](NC(=O)CCOCCC(=O)NCCNc2ncc(-c3cc(C)cc(F)c3)c(N3CCC(N)CC3)c2-c2nc3ccc(Cl)cc3[nH]2)C(C)C)c(OCC(=O)O)c1)C(C)C` [Compound 18]: the EC50 worked out at 6.4 nM in test [1], 7.8 nM in test [2] and 0.097 nM in test [3].

In the case of `CC[C@H](C)[C@@H]([C@@H](CC(=O)N1CCC[C@H]1[C@H](OC)[C@@H](C)C(=O)N[C@H](C)[C@@H](O)c1ccccc1)OC)N(C)C(=O)[C@@H](NC(=O)[C@H](C(C)C)N(C)C(=O)OCc1ccc(NC(=O)[C@H](CCCNC(N)=O)NC(=O)[C@@H](NC(=O)[C@H](CCC(=O)O)NC(=O)CCOCCC(=O)NCCNc2ncc(-c3cc(C)cc(F)c3)c(N3CCC(N)CC3)c2-c2nc3cc(F)cc(OC)c3[nH]2)C(C)C)cc1C(=O)NCCN)C(C)C` [Compound 79], the EC50 in test [1] turned out to be 5.1 nM; in test [2] it was 7.7 nM; in test [3], 0.12 nM.

Values taken from US20260007758A1, “SO[…]-2 RECEPTOR (SST2R) NON-PEPTIDE DRUG CONJUGATES AND USES THEREOF” (Crinetics Pharmaceuticals, Inc., priority 2024, published 2026).
